Results on 17 compounds are retold here after patent US9573961B2, “Inhibitors of the renal outer medullary potassium channel” (Merck Sharp & Dohme Corp., priority 2012, dated 2017).

In one test the target is hROMK (hKir1.1) (Homo sapiens (Human), UniProt P48048). The test is described as follows: Thallium Flux Assay (ROMK channel functional thallium flux, FLIPR-Tetra). In kind it is cell-based. Conditions: read-out: Thallium Flux IC50. The protocol: Cell Culture Conditions—HEK293 cells stably expressing hROMK (hKir1.1) were grown at 37° C. in a 10% CO2 humidified incubator in complete growth media: Dulbecco's Modified Eagle Medium supplemented with non-essential amino acids, Penicillin/Streptomycin/Glutamine, G418 and FBS. At >80% confluency, aspirate the media from the flask and rinse with 10 mL Calcium/Magnesium-free PBS. […] To dislodge the cell, gently bang the side of the flask with your hand. Triturate the cells completely and then transfer the cells to 25 mL complete media. Centrifuge at 1,500 rpm for 6 min followed by resuspension in complete growth media and determine cell concentration. […] Under ideal growth conditions and appropriate tissue culture practices, this cell line is stable for 40-45 passages.
Chain of hROMK (hKir1.1) (P48048 whole entry): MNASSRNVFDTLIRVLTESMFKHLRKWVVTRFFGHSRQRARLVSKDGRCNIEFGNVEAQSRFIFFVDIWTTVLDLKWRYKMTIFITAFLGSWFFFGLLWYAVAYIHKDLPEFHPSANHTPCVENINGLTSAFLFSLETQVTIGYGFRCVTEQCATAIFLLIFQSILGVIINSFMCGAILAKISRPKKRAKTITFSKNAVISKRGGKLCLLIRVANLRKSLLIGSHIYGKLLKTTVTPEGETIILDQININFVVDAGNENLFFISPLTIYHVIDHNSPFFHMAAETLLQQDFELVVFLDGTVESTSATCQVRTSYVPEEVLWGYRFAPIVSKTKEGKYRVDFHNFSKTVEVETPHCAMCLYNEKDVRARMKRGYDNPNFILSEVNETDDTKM
FluxOR Kit Components (Invitrogen F10017) • FluxOR™ Reagent (Component A) • FluxOR™ Assay Buffer (Component B)—10× Concentrate • PowerLoad™ Concentrate (Component C)—100× Concentrate • Probenecid (Component D)—Lyophilized sample is kept at −20° C. Water soluble, 100× after solubilization in 1 mL water. […] Store at 4° C. • Thallium sulfate (Tl2SO4) Concentrate (Component G)—50 mM in water. Store at 4° C. • DMSO (dimethyl sulfoxide, Component H)—1 mL (100%)
Can be stored at room temperature • Stimulant Buffer (prepared at 5× final concentration in 1× FluxOR™ Chloride-Free Buffer): 7.5 mM Thallium sulfate and 0.75 mM Potassium sulfate (to give a final assay concentration of 3 mM Thallium/0.3 mM Potassium). Store at 4° C. when not in use. If kept sterile, this solution is good for months.
Assay Protocol—The ROMK channel functional thallium flux assay is performed in 384 wells, using the FLIPR-Tetra instrument. HEK-hKir1.1 cells are seeded in Poly-D-Lysine microplates and kept in a 37° C.-10% CO2 incubator overnight. On the day of the experiment, the growth media is replaced with the FluxOR™ reagent loading buffer and incubated, protected from light, at ambient temperature (23-25° C.) for 90 min. The loading buffer is replaced with assay buffer±test compound followed by 30 min incubation at ambient temperature, where the Thallium/Potassium stimulant is added to the microplate.
Step Protocol • 1. Seed HEK-hKir1.1 cells (50 μl at 20,000 cells/well) in 384-well PDL coated Microplates • 2. Allow cells to adhere overnight in humidified 37° C./10% CO2 incubator • 3. Completely remove cell growth media from microplate and replace with 25 μl loading buffer • 4. Incubate Microplate at room temperature, protected form light, for 90 min • 5. Remove loading buffer and replace with 25 μl 1× Assay Buffer±test compound. • 6. Incubate microplate at room temperature, protected from light, for 30 min • 7. […] Excitation=400 nm, Emission=460 & 580 nm. Collect data for ˜10 min.
Data Calculation—The fluorescence intensity of wells containing 3 μM of a standard control ROMK inhibitor of the present invention is used to define the ROMK-sensitive component of thallium flux. Fluorescence in the presence of test compounds is normalized to control values to provide % fluorescence change.

A further test deals with Kir1.1 (ROMK1) (Homo sapiens (Human), UniProt P48048). Put plainly: Electrophysiology Assay (whole cell voltage clamp, IonWorks Quattro). In kind it is cell-based. The conditions noted are these: block during voltage step to 0 mV. The protocol: Chinese hamster ovary cells stably expressing Kir1.1 channels were maintained in T-75 flasks in cell culture media in a humidified 10% CO2 incubator at 37° C. Prior to an experiment, Kir1.1 expression was induced by overnight incubation with 1 mM sodium butyrate. […] After centrifugation, the cell pellet was resuspended in approximately 4.0 mL of bath solution and placed in the IonWorks instrument. The intracellular solution consisted of (in mM): 80 K gluconate, 40 KCl, 20 KF, 3.2 MgCl2, 3 EGTA, 5 Hepes, pH 7.4. Electrical access to the cytoplasm was achieved by perforation in 0.13 mg/mL amphotericin B for 4 min. […] Voltage protocols and current recordings were performed using the IonWorks HT software/hardware system. Currents were sampled at 1 kHz. No correction for liquid junction potentials was used. The test pulse, consisting of a 100 ms step to 0 mV from a holding potential of −70 mV, followed by a 100 ms voltage ramp from −70 mV to +70 mV, was applied before and after a 6 min compound incubation period. Test compounds were prepared by diluting DMSO stock solutions into the bath solution at 3× the final concentration and placed in the instrument in 96-well polypropylene plates. Current amplitudes were measured using the IonWorks software.
Chain of Kir1.1 (ROMK1) (P48048 whole entry): as above

Setting [1] is: HEK293 cells stably expressing hROMK (hKir1.1).
[2] abbreviates: Chinese hamster ovary cells stably expressing Kir1.1, read-out: Electrophysiology IC50.
[3] abbreviates: Electrophysiology IC50, Chinese hamster ovary cells stably expressing Kir1.1.

Molecules are shown by their SMILES. Where two headings read alike, the source gives them in different places.

A word on the IC50: it is the midpoint of a concentration-inhibition curve.

As for `Cc1c([C@@H]2CN3CCN(C(=O)Cc4ccc(-n5cnnn5)cc4)C[C@H]3CO2)ccc2nonc12` [Example 76, (3R,9aS)-3-(4-methyl-2,1,3-benzoxadiazol-5-yl)-8-{[4-(1H-tetrazol-1-yl)phenyl]acetyl}octahydropyrazino[2,1-c][1,4]oxazine], the 50% inhibitory concentration (IC50) on hROMK (hKir1.1) (setting [1]) and on Kir1.1 (ROMK1) (setting [2]) was 0.22 µM throughout.
`Cc1c([C@H]2CN3CCN(C(=O)Cc4cc(-n5cnnn5)ccc4F)C[C@@H]3CO2)ccc(F)c1C#N` [Example 58, 6-fluoro-3-[(3S,9aR)-8-{[2-fluoro-5-(1H-tetrazol-1-yl)phenyl]acetyl}octahydropyrazino[2,1-c][1,4]oxazin-3-yl]-2-methylbenzonitrile]: the IC50 was 0.18 µM at hROMK (hKir1.1) (setting [1]) and 0.08 µM on Kir1.1 (ROMK1) (setting [2]).
Regarding `Cc1c(CC(=O)N2CCN3C[C@H](c4ccc(F)c(C#N)c4C)OC[C@H]3C2)cccc1-n1cnnn1` [Example 61, 6-fluoro-2-methyl-3-[(3S,9aR)-8-{[2-methyl-3-(1H-tetrazol-1-yl)phenyl]acetyl}octahydropyrazino[2,1-c][1,4]oxazin-3-yl]benzonitrile], the 50% inhibitory concentration (IC50) on hROMK (hKir1.1) (setting [1]) was 0.34 µM; on Kir1.1 (ROMK1) (setting [2]), 0.24 µM.
As for `Cc1c([C@@H]2CN3CCN(C(=O)Cc4ccc(-n5cnnn5)cc4)C[C@H]3CO2)csc1C#N` [Example 39, 3-methyl-4-[(3R,9aS)-8-{[4-(1H-tetrazol-1-yl)phenyl]acetyl}octahydropyrazino[2,1-c][1,4]oxazin-3-yl]thiophene-2-carbonitrile], the half-inhibitory concentration (IC50) at hROMK (hKir1.1) (setting [1]) and on Kir1.1 (ROMK1) (setting [3]) was 0.06 µM throughout.
With `Cc1c([C@H]2CN3CCN(C(=O)Cc4ccc5c(c4)COC5=O)C[C@H]3CO2)ccc(F)c1C#N` [Example 23, 6-fluoro-2-methyl-3-{(3S,9aS)-8-[(1-oxo-1,3-dihydro-2-benzofuran-5-yl)acetyl]octahydropyrazino[2,1-c][1,4]oxazin-3-yl}benzonitrile], the half-maximal inhibitory concentration (IC50) at hROMK (hKir1.1) and on Kir1.1 (ROMK1) (setting [3]) was 0.07 µM each time.
Turning to `COc1cc([C@@H]2CN3CCN(C(=O)Cc4ccc(-n5cnnn5)cc4)C[C@@H]3CO2)ccc1C#N` [Example 19, 2-methoxy-4-[(3R,9aR)-8-{[4-(1H-tetrazol-1-yl)phenyl]acetyl}octahydropyrazino[2,1-c][1,4]oxazin-3-yl]benzonitrile], the figures for the IC50 at hROMK (hKir1.1) (setting [1]) and at Kir1.1 (ROMK1) (setting [3]) were 0.17 µM and 0.07 µM, respectively.
In the case of `Cc1c([C@@H]2CN3CCN(C(=O)Cc4cc(F)c(-n5cnnn5)cc4F)C[C@@H]3CO2)ccc(F)c1C#N` [Example 54, 3-[(3R,9aR)-8-{[2,5-difluoro-4-(1H-tetrazol-1-yl)phenyl]acetyl}octahydropyrazino[2,1-c][1,4]oxazin-3-yl]-6-fluoro-2-methylbenzonitrile], the half-inhibitory concentration (IC50) at hROMK (hKir1.1) and at Kir1.1 (ROMK1) (setting [3]) was 0.1 µM throughout.
Take `Cc1c([C@@H]2CN3CCN(C(=O)C4CCc5cc(-n6cnnn6)ccc54)C[C@H]3CO2)csc1C#N` (single isomer, unassigned) [Example 83]: the 50% inhibitory concentration (IC50) was determined as 0.14 µM at hROMK (hKir1.1) (setting [1]) and 0.09 µM on Kir1.1 (ROMK1) (setting [2]).
Regarding `Cc1c([C@@H]2CN3CCN(C(=O)Cc4ccc(-n5cnnn5)cc4Cl)C[C@@H]3CO2)ccc(F)c1C#N` [Example 69, 3-[(3R,9aR)-8-{[2-chloro-4-(1H-tetrazol-1-yl)phenyl]acetyl}octahydropyrazino[2,1-c][1,4]oxazin-3-yl]-6-fluoro-2-methylbenzonitrile], the IC50 at hROMK (hKir1.1) turned out to be 0.1 µM; on Kir1.1 (ROMK1) (setting [3]) it was 0.11 µM.
Take `Cc1c([C@@H]2CN3CCN(C(=O)C4CCc5cc(-n6cnnn6)ccc54)C[C@H]3CO2)ccc(F)c1C#N` (mixture of isomers) [Example 2A, 3-((3R,9aS)-8-(5-(1H-tetrazol-1-yl)-2,3-dihydro-1H-indene-1-carbonyl)octahydropyrazino[2,1-c][1,4]oxazin-3-yl)-6-fluoro-2-methylbenzonitrile]: the IC50 is 0.17 µM at hROMK (hKir1.1) (setting [1]) and 0.14 µM at Kir1.1 (ROMK1) (setting [2]).
As to `Cc1c([C@@H]2CN3CCN(C(=O)Cc4ccc(-n5cnnn5)cc4C#N)C[C@@H]3CO2)ccc(F)c1C#N` [Example 68, 3-[(3R,9aR)-8-{[2-cyano-4-(1H-tetrazol-1-yl)phenyl]acetyl}octahydropyrazino[2,1-c][1,4]oxazin-3-yl]-6-fluoro-2-methylbenzonitrile], the figures for the 50% inhibitory concentration (IC50) at hROMK (hKir1.1) (setting [1]) and at Kir1.1 (ROMK1) (setting [3]) were 0.21 µM and 0.12 µM, respectively.
In the case of `Cc1c([C@@H]2CN3CCN(C(=O)Cc4cc(-n5cnnn5)ccc4F)C[C@@H]3CO2)ccc(F)c1C#N` [Example 59, 6-fluoro-3-[(3R,9aR)-8-{[2-fluoro-5-(1H-tetrazol-1-yl)phenyl]acetyl}octahydropyrazino[2,1-c][1,4]oxazin-3-yl]-2-methylbenzonitrile], the IC50 at hROMK (hKir1.1) (setting [1]) came out at 0.36 µM; at Kir1.1 (ROMK1) (setting [2]), 0.14 µM.
For the compound `O=C1OCCc2cc([C@@H]3CN4CCN(C(=O)Cc5ccc(-n6cnnn6)cc5)C[C@H]4CO3)ccc21` [Example 15, 6-[(3R,9aS)-8-{[4-(1H-tetrazol-1-yl)phenyl]acetyl}octahydropyrazino[2,1-c][1,4]oxazin-3-yl]-3,4-dihydro-1H-isochromen-1-one], the IC50 amounted to 0.05 µM on hROMK (hKir1.1) and 0.08 µM at Kir1.1 (ROMK1) (setting [2]).
Regarding `Cc1c([C@H]2CN3CCN(C(=O)C4Cc5ccc(-n6cnnn6)cc5C4)C[C@H]3CO2)ccc(F)c1C#N` (stereo partly drawn) [Example 44, 6-fluoro-2-methyl-3-[(3S,9aS)-8-{[5-(1H-tetrazol-1-yl)-2,3-dihydro-1H-inden-2-yl]carbonyl}octahydropyrazino[2,1-c][1,4]oxazin-3-yl]benzonitrile], the half-inhibitory concentration (IC50) is 0.37 µM at hROMK (hKir1.1) (setting [1]) and 0.16 µM at Kir1.1 (ROMK1) (setting [2]).
For `Cc1c([C@H]2CN3CCN(C(=O)Cc4cccc(-n5cnnn5)c4)C[C@@H]3CO2)ccc(F)c1C#N` [Example 57, 6-fluoro-2-methyl-3-[(3S,9aR)-8-{[3-(1H-tetrazol-1-yl)phenyl]acetyl}octahydropyrazino[2,1-c][1,4]oxazin-3-yl]benzonitrile], in that order: 0.14 µM and 0.05 µM.
As to `Cc1c(CC(=O)N2CCN3C[C@@H](c4ccc(F)c(C#N)c4C)OC[C@H]3C2)cccc1-n1cnnn1` [Example 60, 6-fluoro-2-methyl-3-[(3R,9aR)-8-{[2-methyl-3-(1H-tetrazol-1-yl)phenyl]acetyl}octahydropyrazino[2,1-c][1,4]oxazin-3-yl]benzonitrile], the IC50 on hROMK (hKir1.1) (setting [1]) was determined as 0.44 µM; at Kir1.1 (ROMK1) (setting [2]) it was 0.42 µM.
Regarding `Cc1c([C@@H]2CN3CCN(C(=O)Cc4ccc(-n5cnnn5)cc4)C[C@H]3CN2)ccc(F)c1C#N` [Example 99, 3-((3R,9aR)-8-(2-(4-(1H-tetrazol-1-yl)phenyl)acetyl)octahydro-1H-pyrazino[1,2-a]pyrazin-3-yl)-6-fluoro-2-methylbenzonitrile], the IC50 at hROMK (hKir1.1) (setting [1]) was found to be 0.07 µM; on Kir1.1 (ROMK1) (setting [2]), 0.18 µM.
